The record followed here is patent US6225063A, “RNA channels in biological membranes” (University Technology Corporation, priority 1999, dated 2001).

The test has as its system 11th -round pool RNA. In words: RNA-liposome binding in the presence of a potential competitor (SEPHACRYL S-1000 gel filtration). Particulars: 5 mM competitor; 11th-round pool RNA incubated with liposomes. Background: In gel filtration, larger molecules generally elute earlier.

For the compound `NCCO` [ethanolamine], the “RNA binding to phosphatidylcholine liposomes in the presence of competitor” value is given as “did not interfere with binding”.
